# Data reported in publication PMC5537602, “TRPA1 channel mediates organophosphate-induced delayed neuropathy” (Cell Discovery, 2017).
# Key:
# Format in all cases: cell-based
# TRPV1 = target: T1, TRPV1 (Homo sapiens, UniProt Q8NER1); assay: Calcium fluorescence signal, HEK293 cells overexpressing TRPV1; settings: 10 μM
# T1 construct: expressed in transfected cells; host or cells: HEK293
# Procedure: (§1) Figure S3. Specificity of malathion for TRPA1 channels. (A-F) Time course of the fluorescence signal induced by malathion (Mala, 10 μM) and the indicated positive agonists (10 μM) in HEK293 cells overexpressing TRPV1 (A), TRPV3 (B), TRPV4 (C), TRPM8 (D), TRPC4 (E) and TRPC5 (F) channels. The fluorescence signals are scaled as F/F0. EC indicates external solution. […]
# (§2) cells for each tested TRP channel. All bars are presented as the mean ± SEM. […]
# TRPV3 = target: T2, TRPV3 (Homo sapiens, UniProt Q8NET8); assay: Calcium fluorescence signal, HEK293 cells overexpressing TRPV3; settings: 10 μM
# T2 construct: expressed in transfected cells; host or cells: HEK293
# T2 sequence (Q8NET8 1-790): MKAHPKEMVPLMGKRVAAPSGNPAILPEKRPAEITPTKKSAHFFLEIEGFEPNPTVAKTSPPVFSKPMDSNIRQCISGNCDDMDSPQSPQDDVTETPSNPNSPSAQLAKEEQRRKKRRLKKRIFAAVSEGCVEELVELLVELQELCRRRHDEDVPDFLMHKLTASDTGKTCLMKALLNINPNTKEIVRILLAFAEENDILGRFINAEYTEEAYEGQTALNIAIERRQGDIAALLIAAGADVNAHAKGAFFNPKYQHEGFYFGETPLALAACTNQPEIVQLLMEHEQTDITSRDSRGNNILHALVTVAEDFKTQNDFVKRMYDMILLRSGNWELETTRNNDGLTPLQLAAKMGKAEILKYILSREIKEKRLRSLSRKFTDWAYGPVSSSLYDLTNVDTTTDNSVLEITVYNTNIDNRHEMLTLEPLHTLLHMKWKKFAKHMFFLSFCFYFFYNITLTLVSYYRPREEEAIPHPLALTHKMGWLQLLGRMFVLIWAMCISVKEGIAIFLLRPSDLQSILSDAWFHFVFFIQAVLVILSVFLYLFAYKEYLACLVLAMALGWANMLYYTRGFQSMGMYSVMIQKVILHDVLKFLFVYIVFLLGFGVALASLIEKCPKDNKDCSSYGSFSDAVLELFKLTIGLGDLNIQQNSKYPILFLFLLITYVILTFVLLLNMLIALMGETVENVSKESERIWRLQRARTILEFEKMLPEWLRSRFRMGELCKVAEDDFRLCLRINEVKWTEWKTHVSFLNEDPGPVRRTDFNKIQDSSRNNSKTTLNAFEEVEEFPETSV
# Procedure: as §1, §2
# TRPC4 = target: T3, TRPC4 (Homo sapiens, UniProt Q9UBN4); assay: Calcium fluorescence signal, HEK293 cells overexpressing TRPC4; settings: 10 μM
# T3 construct: expressed in transfected cells; host or cells: HEK293
# T3 sequence (Q9UBN4 1-977): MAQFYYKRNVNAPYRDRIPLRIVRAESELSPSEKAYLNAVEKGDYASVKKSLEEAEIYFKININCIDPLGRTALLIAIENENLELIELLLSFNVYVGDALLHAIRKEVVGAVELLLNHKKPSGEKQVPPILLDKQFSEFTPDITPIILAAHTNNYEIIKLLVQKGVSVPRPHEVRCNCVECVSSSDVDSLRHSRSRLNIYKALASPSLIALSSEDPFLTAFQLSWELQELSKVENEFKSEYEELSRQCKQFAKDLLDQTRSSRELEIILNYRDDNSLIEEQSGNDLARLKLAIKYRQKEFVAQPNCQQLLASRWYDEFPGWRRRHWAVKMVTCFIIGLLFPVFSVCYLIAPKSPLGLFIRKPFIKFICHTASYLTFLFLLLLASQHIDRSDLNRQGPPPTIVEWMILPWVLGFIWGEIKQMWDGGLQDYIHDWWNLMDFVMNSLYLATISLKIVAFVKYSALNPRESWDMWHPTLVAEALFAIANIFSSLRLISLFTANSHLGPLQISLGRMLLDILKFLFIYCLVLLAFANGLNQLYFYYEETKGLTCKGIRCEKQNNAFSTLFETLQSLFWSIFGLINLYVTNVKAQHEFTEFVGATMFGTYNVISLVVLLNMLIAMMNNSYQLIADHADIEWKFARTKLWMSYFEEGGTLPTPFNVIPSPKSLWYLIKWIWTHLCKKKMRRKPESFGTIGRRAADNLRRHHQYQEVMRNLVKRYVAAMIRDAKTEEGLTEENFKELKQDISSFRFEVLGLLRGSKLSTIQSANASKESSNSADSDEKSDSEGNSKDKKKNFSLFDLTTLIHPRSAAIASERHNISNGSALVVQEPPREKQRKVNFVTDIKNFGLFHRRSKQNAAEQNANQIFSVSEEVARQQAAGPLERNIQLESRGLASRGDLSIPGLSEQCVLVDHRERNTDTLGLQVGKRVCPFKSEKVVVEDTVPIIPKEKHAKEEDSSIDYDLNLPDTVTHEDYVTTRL
# Procedure: as §1, §2
# mouse DRG neurons = assay: Single-cell calcium imaging (Fura-2/AM) of isolated DRG neurons
# Procedure: DRG neurons were isolated from young C57 BL/6 mice (4–5 weeks). The sections of thoracic and lumbar DRG neurons were rapidly isolated in calcium and magnesium-free PBS with low temperature conditions (ice-bath environment). The isolated tissues were cut into pieces with scissor and incubated for 30 min with 0.1% collagenase and 0.025% trypsin which were diluted by DMEM-F12 at 37 °C. After digestion, neurons were gently dissociated using Pasteur pipettes and then plated onto poly-D-lysine pre-coated glass cover slips. DRG neurons were cultured for 24 h before use.
# Calcium influx signals were monitored using the ratio metric fluorescent indicator dye Fura-2/AM at room temperature (23–25 °C). Cells were incubated with 2 μM Fura-2/AM, which was generated by diluting the stock solution with normal external solution, for 30 min at 37 °C. […] The maximum excitation wave length of Fura-2/AM was changed to 340 nm from 380 nm when combined with calcium ions. Fura-2/AM was excited at 340 and 380 nm with a rapid switching monochromator obtained from TILL Photonics, and the mean fluorescence intensity ratios (F340/F380) reflected real-time changes in the concentration of intracellular free calcium ions. The external solution used in the DRG whole-cell patch-clamp recordings was also used for calcium imaging. Solutions were switched using a gravity-fed continuous focal perfusion system.
# T1 sequence (Q8NER1 whole entry, species assumed): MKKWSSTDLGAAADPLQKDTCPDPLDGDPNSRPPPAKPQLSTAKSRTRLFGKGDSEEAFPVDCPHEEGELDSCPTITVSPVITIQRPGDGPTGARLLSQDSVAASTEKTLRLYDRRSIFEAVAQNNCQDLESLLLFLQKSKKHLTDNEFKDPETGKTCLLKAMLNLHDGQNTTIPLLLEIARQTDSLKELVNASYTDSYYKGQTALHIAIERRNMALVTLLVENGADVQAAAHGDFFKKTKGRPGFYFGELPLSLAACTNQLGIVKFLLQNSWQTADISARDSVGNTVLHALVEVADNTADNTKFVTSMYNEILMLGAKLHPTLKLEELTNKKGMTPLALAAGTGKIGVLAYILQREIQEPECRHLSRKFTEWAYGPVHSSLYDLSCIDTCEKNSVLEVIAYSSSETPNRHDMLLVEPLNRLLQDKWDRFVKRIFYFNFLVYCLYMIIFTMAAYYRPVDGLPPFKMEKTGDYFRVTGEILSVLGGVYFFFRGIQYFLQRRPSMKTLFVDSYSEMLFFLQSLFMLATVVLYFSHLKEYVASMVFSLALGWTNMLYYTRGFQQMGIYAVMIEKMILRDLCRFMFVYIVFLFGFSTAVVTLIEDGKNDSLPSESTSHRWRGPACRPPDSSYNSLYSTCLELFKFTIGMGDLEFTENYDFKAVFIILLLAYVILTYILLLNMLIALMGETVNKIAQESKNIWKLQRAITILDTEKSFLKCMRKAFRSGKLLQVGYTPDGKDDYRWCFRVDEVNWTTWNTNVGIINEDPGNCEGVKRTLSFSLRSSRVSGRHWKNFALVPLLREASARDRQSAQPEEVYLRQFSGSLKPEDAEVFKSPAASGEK
structure (smiles),measurement,setting,value
"CCOC(=O)CC(SP(=S)(OC)OC)C(=O)OCC (stereo not drawn) [malathion, S-[1,2-bis (ethoxycarbonyl)ethyl] O, O-dimethyl phosphorodithioate]",activation of TRPV1,TRPV1,could not activate
same,activation of TRPV3,TRPV3,could not activate
same,activation of TRPC4,TRPC4,could not activate
same,[Ca2+]i response of DRG neurons from Trpa1−/− mice,mouse DRG neurons; Trpa1−/− neurons,thoroughly unresponsive
same,neurons displaying a robust increase in [Ca2+]i,"mouse DRG neurons; wild-type small-diameter neurons, sequential application of AITC and malathion, 197/451",~ 44%
